# Measurements from patent US20240269139A1, “COMPOUNDS FOR TARGETED PROTEIN DEGRADATION OF KINASES” (DANA-FARBER CANCER INSTITUTE, INC., priority 2020, published 2024).
# Tests used:
# Assay type in all cases: cell-based
# [1] = target: protein kinases (human kinome) (Homo sapiens, UniProt P30291); details: WEE1 P30291-1; experiment wp076; degrader vs DMSO
# Description: (§1) Although development of targeted protein degraders requires a POI binder, among already-liganded proteins such as kinases, it was hypothesized that different targets would have a different propensity for current approaches to degrader-mediated destruction, which was termed ‘degradability’. […] It was rationalized that the probability of identifying the same kinase as a false positive in multiple treatments is low, therefore this analysis served to also assess the robustness of our data and subsequent interpretations. […] Overall, 62 protein kinases were degraded in more than 10 independent treatments, and remarkably, 9 of these (CDK4, AURKA, FER, WEE1, BLK. LIMK2, CDK6, GAK, LIMK1) were each degraded in at least 40 of the 154 independent treatments, emphasizing their predisposition to induced degradation (FIG. 1G; Appendix I).
# (§2) Next, the frequency of degradation assessment was corrected for over-representation of molecules in the full dataset by omitting replicate profiling of compounds under different experimental conditions, to remove any bias. […] Unsurprisingly, the top degradable kinases mirror those from the previous analysis (CDK4, AURKA, FER, WEE1, BLK), confirming that in sufficiently large datasets, even with over-representation of certain molecules, frequency of degradation is a good measure of general tractability.
# [2] = tested on: protein kinases (human kinome); details: for Kinase hits: kinases significantly downregulated vs DMSO (fold change cutoff −1.25, P-value<0.01), ≤8 h, 0.1-5 μM degrader, 7 cell lines; for Total no. kinase hits: number of degraded kinases per library compound
# Description: as §1, §2
# [3] = target: protein kinases (human kinome) (Homo sapiens, UniProt P16591)
# Description: as §1, §2
# Chain of protein kinases (human kinome) (Homo sapiens, UniProt P16591) (P16591 whole entry): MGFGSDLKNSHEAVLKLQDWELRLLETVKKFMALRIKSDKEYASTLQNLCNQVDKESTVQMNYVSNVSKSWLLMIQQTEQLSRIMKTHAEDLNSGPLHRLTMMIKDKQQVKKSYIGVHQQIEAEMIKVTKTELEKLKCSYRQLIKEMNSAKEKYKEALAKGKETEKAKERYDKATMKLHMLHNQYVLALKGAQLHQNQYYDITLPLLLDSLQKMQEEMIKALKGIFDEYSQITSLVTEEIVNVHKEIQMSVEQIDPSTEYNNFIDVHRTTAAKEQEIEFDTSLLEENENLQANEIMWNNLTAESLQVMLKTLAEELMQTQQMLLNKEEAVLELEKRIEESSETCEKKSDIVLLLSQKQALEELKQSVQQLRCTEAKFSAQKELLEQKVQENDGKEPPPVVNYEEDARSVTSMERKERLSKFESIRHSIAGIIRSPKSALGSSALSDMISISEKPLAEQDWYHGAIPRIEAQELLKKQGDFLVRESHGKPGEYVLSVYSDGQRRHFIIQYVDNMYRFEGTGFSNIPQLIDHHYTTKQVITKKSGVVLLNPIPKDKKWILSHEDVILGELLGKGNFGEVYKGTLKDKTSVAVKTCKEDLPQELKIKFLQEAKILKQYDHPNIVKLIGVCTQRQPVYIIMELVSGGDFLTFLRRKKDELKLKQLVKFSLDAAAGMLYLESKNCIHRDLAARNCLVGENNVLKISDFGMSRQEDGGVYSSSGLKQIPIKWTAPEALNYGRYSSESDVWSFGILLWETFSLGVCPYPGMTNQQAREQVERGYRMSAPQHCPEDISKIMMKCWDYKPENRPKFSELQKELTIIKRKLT
# Chain of protein kinases (human kinome) (Homo sapiens, UniProt P30291) (P30291 whole entry): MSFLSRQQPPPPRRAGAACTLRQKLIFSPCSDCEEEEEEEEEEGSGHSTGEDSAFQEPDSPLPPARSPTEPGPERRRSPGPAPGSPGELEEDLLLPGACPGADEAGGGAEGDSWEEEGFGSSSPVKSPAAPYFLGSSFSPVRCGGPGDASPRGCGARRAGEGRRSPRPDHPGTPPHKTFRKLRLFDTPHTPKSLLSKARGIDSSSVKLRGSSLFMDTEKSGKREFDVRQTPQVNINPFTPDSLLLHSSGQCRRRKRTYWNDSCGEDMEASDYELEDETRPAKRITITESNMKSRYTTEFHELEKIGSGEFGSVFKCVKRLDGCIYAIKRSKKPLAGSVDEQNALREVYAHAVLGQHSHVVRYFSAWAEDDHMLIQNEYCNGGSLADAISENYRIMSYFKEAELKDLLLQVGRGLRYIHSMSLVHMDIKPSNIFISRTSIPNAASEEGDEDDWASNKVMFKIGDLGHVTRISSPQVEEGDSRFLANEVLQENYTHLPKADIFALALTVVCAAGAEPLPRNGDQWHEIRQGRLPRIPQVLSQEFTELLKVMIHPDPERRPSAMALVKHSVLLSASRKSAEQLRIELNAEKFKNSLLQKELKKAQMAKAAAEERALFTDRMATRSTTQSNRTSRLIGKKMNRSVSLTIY
Structure (SMILES),Kinase hits [2],Total no. kinase hits [2],also measured
CNC(=O)c1ccccc1Nc1cc(Nc2ccc(N3CCN(CCOCCOCCNC(=O)CNc4cccc5c4C(=O)N(C4CCC(=O)NC4=O)C5=O)CC3)cc2OC)ncc1C(F)(F)F (stereo not shown) [MFH.S.103.1],–,–,logFC of WEE1 [1]: −0.9694
Cc1cc(Nc2ncc(Cl)c(Nc3ccccc3S(=O)(=O)C(C)C)n2)c(OC(C)C)cc1C1CCN(CCOCCOCCNC(=O)CNc2cccc3c2C(=O)N(C2CCC(=O)NC2=O)C3=O)CC1 (stereo not shown) [TI13.112],–,–,"logFC PTK2 ([2]; Accession Q05397-5, experiment wp012, direction down): −0.6217; logFC RPS6KA1 (Q15418-2) ([2]; RPS6KA1 protein abundance, degrader vs DMSO, experiment wp012): −0.7875; logFC of FER ([3]; FER P16591-1, experiment wp012): −0.5247"
Cc1cc(Nc2ncc(Cl)c(Nc3ccccc3S(=O)(=O)C(C)C)n2)c(OC(C)C)cc1C1CCN(CCOCCOCCNC(=O)CNc2cccc3c2C(=O)N(C2CCC(=O)NC2=O)C3=O)CC1 (stereo not shown) [TL13.112],–,–,"logFC PTK2 (Q05397-5) ([2]; Experiment wp012, direction of change down): −0.6217; logFC RPS6KA1 ([2]; RPS6KA1 (Q15418-2), experiment wp012): −0.7875; logFC of FER (P16591-1) ([3]; Experiment wp012, down): −0.5247"
CC(=O)c1c(C)c2cnc(Nc3ccc(N4CCN(CC(=O)NCCOCCOCCOCCNc5cccc6c5C(=O)N(C5CCC(=O)NC5=O)C6=O)CC4)cn3)nc2n(C2CCCC2)c1=O (stereo not shown) [YKL-06-102],"CDK4, CDK6, WEE1",3,–
C=CCn1c(=O)c2cnc(Nc3ccc(N4CCN(CCCNc5cccc6c5C(=O)N(C5CCC(=O)NC5=O)C6=O)CC4)cc3)nc2n1-c1cccc(C(C)(C)O)n1 (stereo not shown) [ZNL-02-096],"COQ8A, MKNK2, PAK4, PDK1, PDK2, PDK3, PRKCI, TBCK, WEE1",9,–
CN1c2ccccc2C(=O)Nc2cnc(Nc3ccc(N4CCN(C(=O)CCOCCNc5cccc6c5C(=O)N(C5CCC(=O)NC5=O)C6=O)CC4)cc3)nc21 (stereo not shown) [ZNL-03-127],"BLK LIMK1, LIMK2 STK17A, TNK2",5,"kinases the bifunctional compound degrades ([2]; as stated for the structure in the embodiments): BLK, LIMK1, LIMK2, STK17A, and TNK2"
Cc1ncsc1-c1ccc([C@H](C)NC(=O)[C@@H]2C[C@@H](O)CN2C(=O)[C@@H](NC(=O)CCOCCOCCOCCN2CCC(C(=O)Nc3ncc(SCc4ncc(C(C)(C)C)o4)s3)CC2)C(C)(C)C)cc1 [ZZ-1-31B],"CDK9, CLK1",2,–
